According to patent US7919508B2, “3-piperidinylisochroman-5-ols as dopamine agonists” (Aventis Pharmaceuticals Inc., priority 2004, dated 2011):
Where a name gives a salt, the structure may show the parent alone.

Key:
[1] = molecular target: T1, human dopamine D1 receptor (Homo sapiens, UniProt P21728); experiment: [3H]-SCH-23390 binding to cloned human dopamine D1 receptors (CHO cell membranes); settings: competitive binding, [3H]-SCH-23390, cloned human D1 in CHO membranes; read-out: D1 affinity Ki
T1 construct: A 1.4 Kb Hind III to Xho I fragment was subcloned into the vector pMMLV; expressed in transfected cells; host or cells: CHO cells, clone CHO-D1M#9 (plasmid pHD1MMLV), membranes

[2] = molecular target: T2, D1 receptor (Homo sapiens, UniProt P21728); experiment: D1 Activation Adenylyl Cyclase Assay (cAMP FlashPlate, D1 transfected CHO cell line); format: cell-based; settings: agonist activity at the D1 receptor, adenylate cyclase assay, D1 transfected CHO cell line; read-out: D1 EC50
T2 construct: expressed in transfected cells; host or cells: D1 transfected CHO cell line
Summary of the method: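 D1-transfected CHO cells (50,000/well) were exposed to compound 1/10 serial dilutions for 8 min at RT; cAMP measured by competitive 125I-cAMP FlashPlate against a standard curve. Response normalised between basal and saturating D1 agonist; EC50 at half-maximal stimulation, plateau reported as % maximal dopamine stimulation.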

[3] = molecular target: human dopamine D2Long (D2L) receptors (Homo sapiens, UniProt P14416)
Sequence of human dopamine D2Long (D2L) receptors (P14416 whole entry): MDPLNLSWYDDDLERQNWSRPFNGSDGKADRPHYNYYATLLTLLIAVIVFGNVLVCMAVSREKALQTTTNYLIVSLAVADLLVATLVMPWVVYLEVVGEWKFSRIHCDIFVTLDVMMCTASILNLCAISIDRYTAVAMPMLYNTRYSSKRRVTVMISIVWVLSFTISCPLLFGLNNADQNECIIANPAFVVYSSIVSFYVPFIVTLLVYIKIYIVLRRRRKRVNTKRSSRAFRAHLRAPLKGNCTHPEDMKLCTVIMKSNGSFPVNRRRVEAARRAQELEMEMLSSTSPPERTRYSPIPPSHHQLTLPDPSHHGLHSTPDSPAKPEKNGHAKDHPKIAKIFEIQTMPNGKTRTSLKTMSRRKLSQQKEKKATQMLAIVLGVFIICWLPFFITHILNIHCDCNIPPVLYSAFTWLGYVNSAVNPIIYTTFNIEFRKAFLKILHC
Protocol: [N-Methyl-^3H]Spiroperidol Binding to Cloned Human Dopamine D2Long Receptors
This assay measures the in vitro activity of drugs on cloned human dopamine D2Long (D2L) receptors and predicts the direct dopamine-displacing properties of neuropsychiatric, cardiovascular and renal agents at human dopamine D2 receptors.
Cells were maintained in Ham's F12+10% Fetal Bovine Serum+Penicillin/Streptomycin (100 U/ml/100 μg/ml)+G418 (400 μg/ml) medium and were split using Trypsin-EDTA (1 ml/plate, room temperature for ˜2 min. or until cells have lifted off plates). • 2. […] Plates are incubated at 37° C.+5% CO2 for ˜3 days or until cells were confluent.
Cells are harvested by mechanical scraping, washed using PBS collected in 250 ml Corning polypropylene centrifuge tubes, spun down and resuspended in dH2O (final volume per harvest approximately 60 ml). Protein determination is made according to the method of Lowry (Biorad DC Assay Kit). Following the determination of the protein concentration, the protein is diluted into distilled water with 10% DMSO to the appropriate volume based on expression levels (Bmax). The concentrated protein is aliquoted into 1.5 ml screw top eppendorf tubes and placed into a −80° C. freezer.
Assay Requirement: 1 cryovial per two 96 well plates
0.5M Tris Wash Buffer, pH 7.7 • a) 44.4 g Tris HCl • 26.5 g Tris Base • q.s. to 1 Liter (0.5 M Tris buffer, pH 7.7 at 37° C.) • b) make a 1:10 dilution in distilled H2O (0.05 M. Tris buffer, pH 7.7) • 2. Tris Buffer containing physiological salts • a) Stock buffer • NaCl 7.014 g • KCl 0.372 g • CaCl2 0.222 g • MgCl2 0.204 g • q.s. To 100 ml with 0.5 M. Tris Buffer • b) Dilute 1:10 in distilled H2O • This yields 0.05 M. Tris HCl, pH 7.7, containing NaCl (120 mM), KCl (5 mM), CaCl2 (2 mM) and MgCl2 (1 mM) • Optional: add 0.1% ascorbic acid and check pH (in assays with compounds that may oxidize. • c) 1.0% polyethyleneimine stock in 0.5M Tris (reagent 1.a) • Dilute 1:10 in distilled H2O Binding Assay • 750 μl Tissue • 150 μl [^3H]NMSP • 100 μl vehicle (for total binding) or 30 μM (−)
eticlopride (for nonspecific binding) or appropriate drug concentration.
The 96-Well Packard Unifilters GF/B are incubated for >1 h at 25° C. in 0.1% polyethylenimine. The cold tissue is added last and mixed on a orbital shaker for a few seconds and is then incubated at 37° C. for 30 min in a shaking water bath. The assay is stopped by rapid filtration through Packard Unifilter plates. The filter membranes are then washed with 15 ml of ice-cold 0.05 M Tris buffer. The filters are then dried (˜15 min. under a heat lamp or incubated for 15 min. in a 60° C. oven) and a bottom seal is applied. Then 40 μl of Packard Microscint 20 scintillation cocktail are added and a permanent topseal (Type P) is applied and heat sealed. The plates are placed in a Packard Topcount.
Specific binding is defined as the difference between total binding and the binding in the presence of 3 μM S-(−)-eticlopride. Total binding is approximately 10% of the total added ligand. […] The percent inhibition at each drug concentration is the mean of duplicate determinations.

T2 sequence (P21728 whole entry): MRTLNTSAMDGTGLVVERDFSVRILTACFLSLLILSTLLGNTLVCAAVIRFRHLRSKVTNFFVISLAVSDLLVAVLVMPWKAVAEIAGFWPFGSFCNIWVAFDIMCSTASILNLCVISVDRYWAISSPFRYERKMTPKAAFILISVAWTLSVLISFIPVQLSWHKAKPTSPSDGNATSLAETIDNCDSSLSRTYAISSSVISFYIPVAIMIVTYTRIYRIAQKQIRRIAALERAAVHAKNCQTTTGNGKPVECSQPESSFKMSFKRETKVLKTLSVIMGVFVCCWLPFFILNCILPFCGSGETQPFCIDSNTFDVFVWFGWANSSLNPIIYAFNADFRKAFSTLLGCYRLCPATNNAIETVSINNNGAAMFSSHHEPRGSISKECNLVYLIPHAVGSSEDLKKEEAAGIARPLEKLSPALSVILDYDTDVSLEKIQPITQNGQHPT
T1 sequence (P21728 whole entry, the tested form may be a part): as the sequence (P21728 whole entry) above

Compound	Ki [1] [nM]	EC50 [2] [nM]	Ki [3] [nM]
CCCCN(CCCC)C(=O)N1CCC([C@@H]2Cc3c(ccc(C)c3O)[C@H](CN)O2)CC1 [Example 139, 4-((1R,3S)-1-Aminomethyl-5-hydroxy-6-methyl-isochroman-3-yl)-piperidine-1-carboxylic acid dibutylamide hydrochloride]	137	0.11	204
COc1cccc(NC(=O)N2CCC([C@@H]3Cc4c(ccc(C)c4O)[C@H](CN)O3)CC2)c1 [Example 125, 4-((1R,3S)-1-Aminomethyl-5-hydroxy-6-methyl-isochroman-3-yl)-piperidine-1-carboxylic acid (3-methoxy-phenyl)-amide]	79	60	≥ 10000
Cc1ccc2c(c1O)C[C@@H](C1CCN(CCC(C)NC(=O)c3ccc(F)cc3)CC1)O[C@H]2CN (stereo partly drawn) [Example 22, N-{3-[4-((1R,3S)-1-Aminomethyl-5-hydroxy-6-methyl-isochroman-3-yl)-piperidin-1-yl]-1-methyl-propyl}-4-fluoro-benzamide dihydrochloride]	114	24	564
Cc1ccc2c(c1O)C[C@@H](C1CCN(Cc3cc4ccccc4n3C)CC1)O[C@H]2CN [Example 88, (1R,3S)-1-Aminomethyl-6-methyl-3-[1-(1-methyl-1H-indol-2-ylmethyl)-piperidin-4-yl]-isochroman-5-ol dihydrochloride]	66.5	29	109
CNC[C@@H]1O[C@H](C2CCN(Cc3ccc(C(C)C)cc3)CC2)Cc2c1ccc(C)c2O [Example 97, (1R,3S)-3-[1-(4-Isopropyl-benzyl)-piperidin-4-yl]-6-methyl-1-methylaminomethyl-isochroman-5-ol dihydrochloride]	53.1	66	357
Cc1ccc2c(c1O)C[C@@H](C1CCN(CCNC(=O)c3ccc(F)cc3)CC1)O[C@H]2CN [Example 189, N-{2-[4-((1R,3S)-1-Aminomethyl-5-hydroxy-6-methylisochroman-3-yl)-piperidin-1-yl]ethyl}-4-fluorobenzamide dihydrobromide]	312	270	61
Cc1ccc2c(c1O)C[C@@H](C1CCN(S(=O)(=O)c3cc(Cl)ccc3Cl)CC1)O[C@H]2CN [Example 151, (1R,3S)-1-Aminomethyl-3-[1-(2,5-dichloro-benzenesulfonyl)-piperidin-4-yl]-6-methyl-isochroman-5-ol hydrochloride]	82	58	≥ 100000
Cc1ccc2c(c1O)C[C@@H](C1CCN(CCC(C)NC(=O)c3ccc(Cl)cc3)CC1)O[C@H]2CN (stereo partly drawn) [Example 13, N-{3-[4-((1R,3S)-1-Aminomethyl-5-hydroxy-6-methyl-isochroman-3-yl)-piperidin-1-yl]-1-methyl-propyl}-4-chloro-benzamide dihydrochloride]	128	30	361
Cc1ccc2c(c1O)C[C@@H](C1CCN(C(=O)N3CCCC3)CC1)O[C@H]2CN [Example 135, [4-((1R,3S)-1-Aminomethyl-5-hydroxy-6-methyl-isochroman-3-yl)-piperidin-1-yl]-pyrrolidin-1-yl-methanone hydrochloride]	61.5	2.8	≥ 100000
Cc1ccc2c(c1O)C[C@@H](C1CCN(C(=O)Nc3cc(C(F)(F)F)ccc3F)CC1)O[C@H]2CN [Example 124, 4-((1R,3S)-1-Aminomethyl-5-hydroxy-6-methyl-isochroman-3-yl)-piperidine-1-carboxylic acid (2-fluoro-5-trifluoromethyl-phenyl)-amide hydrobromide]	486	20	≥ 10000
CCCCN1CCC([C@@H]2Cc3c(ccc(C)c3O)[C@H](CN)O2)CC1 [Example 33, (1R,3S)-1-Aminomethyl-3-(1-butyl-piperidin-4-yl)-6-methyl-isochroman-5-ol dihydrochloride]	70	13	≥ 10000
Cc1ccc2c(c1O)C[C@@H](C1CCN(CC3CCCCC3)CC1)O[C@H]2CN [Example 34, (1R,3S)-1-Aminomethyl-3-(1-cyclohexylmethyl-piperidin-4-yl)-6-methyl-isochroman-5-ol dihydrochloride]	47	66	≥ 10000

Now those with a lower Ki [1], led by results:

Ki [1] [nM]	EC50 [2] [nM]	Ki [3] [nM]	Compound
42.8	62	749	Cc1ccc2c(c1O)C[C@@H](C1CCN(Cc3ccccc3F)CC1)O[C@H]2CN [Example 36, (1R,3S)-1-Aminomethyl-3-[1-(2-fluoro-benzyl)-piperidin-4-yl]-6-methyl-isochroman-5-ol dihydrobromide]
42.3	9	2.4	Cc1ccc2c(c1O)C[C@@H](C1CCN(Cc3cn(C)c4ccccc34)CC1)O[C@H]2CN [Example 90, (1R,3S)-1-Aminomethyl-6-methyl-3-[1-(1-methyl-1H-indol-3-ylmethyl)-piperidin-4-yl]-isochroman-5-ol trihydrochloride]
40.7	12	43.4	Cc1ccc2c(c1O)C[C@@H](C1CCN(Cc3cn(Cc4ccccc4)c4ccccc34)CC1)O[C@H]2CN [Example 91, (1R,3S)-1-Aminomethyl-3-[1-(1-benzyl-1H-indol-3-ylmethyl)-piperidin-4-yl]-6-methyl-isochroman-5-ol dihydrochloride]
39.9	77	97.6	Cc1ccc2c(c1O)C[C@@H](C1CCN(Cc3sc4ccccc4c3C)CC1)O[C@H]2CN [Example 86, (1R,3S)-1-Aminomethyl-6-methyl-3-[1-(3-methyl-benzo[b]thiophen-2-ylmethyl)-piperidin-4-yl]-isochroman-5-ol dihydrochloride]
33	11	≥ 10000	Cc1ccc2c(c1O)C[C@@H](C1CCN(Cc3ccc(F)cc3)CC1)O[C@H]2CN [Example 26, (1R,3S)-1-Aminomethyl-3-[1-(4-fluoro-benzyl)-piperidin-4-yl]-6-methyl-isochroman-5-ol dihydrobromide]
30.5	12	≥ 10000	Cc1ccc2c(c1O)C[C@@H](C1CCN(Cc3cnc4ccccc4c3)CC1)O[C@H]2CN [Example 56, (1R,3S)-1-Aminomethyl-6-methyl-3-(1-quinolin-3-ylmethyl-piperidin-4-yl)-isochroman-5-ol dihydrochloride]
18	1.9	≥ 100000	Cc1ccc2c(c1O)C[C@@H](C1CCN(S(=O)(=O)Cc3ccccc3)CC1)O[C@H]2CN [Example 142, (1R,3S)-1-Aminomethyl-6-methyl-3-(1-phenylmethanesulfonyl-piperidin-4-yl)-isochroman-5-ol hydrochloride]
2.07	460	434	Cc1ccc2c(c1O)C[C@@H](C1CCN(S(=O)(=O)CC(F)(F)F)CC1)O[C@H]2CN [Example 157, (1R,3S)-1-Aminomethyl-6-methyl-3-[1-(2,2,2-trifluoro-ethanesulfonyl)-piperidin-4-yl]-isochroman-5-ol hydrochloride]
